Measured values taken from patent US8383637B2, “2-amino-quinazoline derivatives useful as inhibitors of β-secretase (BACE)” (Jansssen Pharmaceutica N.V., priority 2004, dated 2013).
Like-named read-outs stand apart in the source and are kept apart here.

Legend:
β-secretase(BACE) [1] = target: T1, β-secretase(BACE) (Homo sapiens, UniProt P56817); experiment: BACE Assay-2 (FS1 substrate, IC50 and Ki); assay type: biochemical; details: procedure of Example 159, FS1 substrate; read-out: Ki μM (159)
T1 construct: purchased Panvera
T1 sequence (P56817 46-501): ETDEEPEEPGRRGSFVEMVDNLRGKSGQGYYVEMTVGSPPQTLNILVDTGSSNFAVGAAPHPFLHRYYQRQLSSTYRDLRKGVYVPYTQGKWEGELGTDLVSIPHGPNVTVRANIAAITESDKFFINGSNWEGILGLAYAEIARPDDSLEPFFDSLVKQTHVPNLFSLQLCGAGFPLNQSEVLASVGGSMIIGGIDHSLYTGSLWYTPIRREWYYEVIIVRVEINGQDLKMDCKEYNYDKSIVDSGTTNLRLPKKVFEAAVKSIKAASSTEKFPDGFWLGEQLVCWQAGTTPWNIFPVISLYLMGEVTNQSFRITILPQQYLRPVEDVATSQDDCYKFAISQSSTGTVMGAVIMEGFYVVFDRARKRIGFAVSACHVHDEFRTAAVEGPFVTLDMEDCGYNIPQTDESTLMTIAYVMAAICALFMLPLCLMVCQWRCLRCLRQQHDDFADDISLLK

β-secretase(BACE) [2] = target: T1, β-secretase(BACE); experiment: BACE FS1% Inhibition Assay; assay type: biochemical; details: FS1 substrate; for inhibition at 0.3 µM: 0.3 μM test compound; for inhibition at 1 µM: 1 μM test compound; for inhibition at 3 µM: 3 μM test compound
Outline: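 Percent inhibition at each tested concentration, referenced to enzyme-free blank and vehicle-only positive control. Reaction: compound and BACE (4 μg/mL working stock) mixed 20 min at room temperature before FS1 substrate (300 μg/mL working stock), then 1 h at room temperature.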

[3] = read-out: % Inhibition (FS) 0.3 μM
[4] = read-out: % Inhibition (FS) 1 μM
[5] = read-out: % Inhibition (FS) 3 μM

Compound	Ki (β-secretase(BACE) [1]) [µM]	inhibition at 0.3 µM (β-secretase(BACE) [2]; [3]) [%]	inhibition at 1 µM (β-secretase(BACE) [2]; [4]) [%]	inhibition at 3 µM (β-secretase(BACE) [2]; [5]) [%]	inhibition at 0.3 µM (β-secretase(BACE) [2]; read-out: % Inhibition (FS)) [%]	inhibition at 1 µM (β-secretase(BACE) [2]; read-out: % Inhibition (FS)) [%]	inhibition at 3 µM (β-secretase(BACE) [2]; read-out: % Inhibition (FS)) [%]	inhibition at 10 µM (β-secretase(BACE) [2]; 10 μM test compound, read-out: % Inhibition (FS) 10 μM) [%]
NC1=Nc2ccc(-c3ccccc3F)cc2CN1CCC(=O)NC1C2CC3CC(C2)CC1C3 (stereo not drawn) [Compound 635]	0.014	104	115	119	–	–	–	–
Cc1ccccc1-c1ccc2c(c1)CN(Cc1cccc(C(=O)N(C)C3CCCCC3)c1)C(N)=N2 [Compound 261]	0.42	51	87	110	–	–	–	–
NC1=Nc2ccc(Oc3ccccc3)cc2CN1[C@@H](CCC(=O)N(CCOCc1ccccc1)[C@H]1CC[C@@H](C(=O)O)CC1)C1CCOCC1 [Compound 751, (S)-enantiomer of 4-[[4-(2-Amino-6-phenoxy-4H-quinazolin-3-yl)-4-(tetrahydro-pyran-4-yl)-butyryl]-(2-benzyloxy-ethyl)-amino]-cyclohexanecarboxylic acid]	0.025	–	–	–	112	112	116	–
NC1=Nc2ccc(-c3ccccc3F)cc2CN1CCNC(=O)C1CCCCC1 [Compound 535]	0.076	57	86	116	–	–	–	–
Cc1cccc(-c2ccc3c(c2)CN(Cc2cccc(C(=O)N(C)C4CCCCC4)c2)C(N)=N3)c1 [Compound 176]	0.2	66	97	111	–	–	–	–
Cc1ccccc1-c1ccc2c(c1)CN(CCNC(=O)C1CCOCC1)C(N)=N2 [Compound 693]	0.17	–	–	–	47	83	109	–
CN(C(=O)CC[C@@H](C1CCCCC1)N1Cc2cc(Oc3ccccc3)ccc2N=C1N)[C@H]1CC[C@H](C(=O)O)CC1 [Compound 740]	0.037	–	–	–	82	98	104	–
CN(C(=O)CCC(C1CCCCC1)N1Cc2cc(Oc3ccccc3)ccc2N=C1N)C1CCCC(C(=O)O)C1 (stereo not drawn) [Compound 776]	0.107	–	–	–	41	95	117	–
CCCCCC(CCC(=O)N(C)C1CCCCC1)N1Cc2cc(Oc3ccccc3)ccc2N=C1N (stereo not drawn) [Compound 148]	0.25	35	62	114	–	–	–	–
CN(CCCN1Cc2cc(Oc3ccccc3)ccc2N=C1N)C1CCCCC1 [Compound 428, 3-[3-(Cyclohexyl-methyl-amino)-propyl]-6-phenoxy-3,4-dihydro-quinazolin-2-ylamine]	0.23	< 30	60	98	–	–	–	–
COc1ccccc1-c1ccc2c(c1)CN(C(CCC(=O)N(C)C1CCCCC1)C1CCCCC1)C(N)=N2 (single isomer, unassigned) [Compound 530]	0.13	< 30	80	118	–	–	–	–
NC1=Nc2ccc(Oc3ccccc3)cc2CN1CCNC(=O)CCC1CCCC1 [Compound 140]	0.32	–	–	79	–	–	–	101
COC(=O)[C@H]1CC[C@@H](N(C)C(=O)CC[C@@H](C2CCCCC2)N2Cc3cc(Oc4ccccc4)ccc3N=C2N)CC1 [Compound 761]	0.175	–	–	–	51	91	112	–
CCCN1Cc2cc(Oc3cccc(NCc4ccc(C)cc4)c3)ccc2N=C1N [Compound 729]	0.33	–	–	–	33	61	100	–
CN(C(=O)CC[C@@H](C1CCOCC1)N1Cc2cc(Oc3ccccc3)ccc2N=C1N)[C@H]1CC[C@H](C(=O)O)CC1 [Compound 746]	0.035	–	–	–	85	104	112	–
COc1ccccc1C(=O)NCCN1Cc2cc(Oc3ccccc3)ccc2N=C1N [Compound 216]	0.52	< 30	45	91	–	–	–	–
